{
  "source": "ChEMBL document CHEMBL5518158",
  "about": "“Recent advances in triazoles as tyrosinase inhibitors” (Eur J Med Chem, 2023)",
  "format_in_all_cases": "protein assay",
  "key": {"Mushroom tyrosinase [1]": {"biological_target": "T1, Mushroom tyrosinase (Agaricus bisporus, UniProt O42713+Q00024+C7FF04+C7FF05)", "assay": "Inhibition of mushroom tyrosinase incubated for 10 mins by spectrophotometric analysis"}, "Mushroom tyrosinase [2]": {"biological_target": "T1, Mushroom tyrosinase", "assay": "Inhibition of mushroom tyrosinase using L-DOPA as substrate incubated for 20 mins spectrophotometric analysis"}, "Mushroom tyrosinase [3]": {"biological_target": "T1, Mushroom tyrosinase", "assay": "Inhibition of mushroom tyrosinase using L-DOPA as substrate pre-treated for 20 mins followed by substrate addition measured for 15 mins by absorbance based analysis"}, "Mushroom tyrosinase [4]": {"biological_target": "T1, Mushroom tyrosinase", "assay": "Inhibition of mushroom tyrosinase using L-tyr as substrate"}, "Mushroom tyrosinase [5]": {"biological_target": "T1, Mushroom tyrosinase", "assay": "Binding affinity to mushroom tyrosinase assessed as binding constant by fluorescence spectrophotometry"}, "Mushroom tyrosinase [6]": {"biological_target": "T1, Mushroom tyrosinase", "assay": "Inhibition of mushroom tyrosinase using L-DOPA as substrate preincubated for 10 mins"}, "Mushroom tyrosinase [7]": {"biological_target": "T1, Mushroom tyrosinase", "assay": "Inhibition of mushroom tyrosinase using L-tyrosine as substrate incubated for 20 mins by spectrophotometric analysis"}},
  "data": [
    {"compound": "O=c1cc(Cn2cc(COc3ccc([N+](=O)[O-])cc3)nn2)occ1O", "values": [
      {"measurement": "IC50", "setting": "Mushroom tyrosinase [1]", "result": 520, "unit": "nM"}
    ]},
    {"compound": "O=c1cc(Cn2cc(COc3ccc4ccccc4c3)nn2)occ1O", "values": [
      {"measurement": "IC50", "setting": "Mushroom tyrosinase [2]", "result": 300, "unit": "nM"}
    ]},
    {"compound": "O=c1cc(Cn2cc(COc3cccc4ccccc34)nn2)occ1O", "values": [
      {"measurement": "IC50", "setting": "Mushroom tyrosinase [2]", "result": 60, "unit": "nM"}
    ]},
    {"compound": "Oc1ccc2c(c1)OCO2", "values": [
      {"measurement": "IC50", "setting": "Mushroom tyrosinase [3]", "result": 6700, "unit": "nM"}
    ]},
    {"compound": "COc1ccc(C=O)cc1O", "note": "[ISOVANILLIN]", "values": [
      {"measurement": "IC50", "setting": "Mushroom tyrosinase [4]", "result": "> 500000", "unit": "nM"}
    ]},
    {"compound": "O=C(CSc1nnc(-c2ccccc2F)n1-c1ccc(F)cc1)Nc1ccc(F)cc1", "values": [
      {"measurement": "Ki", "setting": "Mushroom tyrosinase [5]", "result": 18, "unit": "nM"},
      {"measurement": "IC50", "setting": "Mushroom tyrosinase [6]", "result": 98, "unit": "nM"}
    ]},
    {"compound": "C/C=C/c1ccc(O)c(OC)c1", "values": [
      {"measurement": "IC50", "setting": "Mushroom tyrosinase [7]", "result": 33330, "unit": "nM"}
    ]}
  ]
}
